Measured values as given in patent EP3426036B1, “CROP ENHANCEMENT” (priority 2016, dated 2017).

How the values were obtained:
Format in all cases: in vivo
[1] = system: spring wheat (Triticum aestivum L.) of the variety Taifun; experiment: Whole plant transpiration analysis
Method: For whole plant transpiration analysis, spring wheat (Triticum aestivum L.) of the variety Taifun was grown under pest free conditions in 1.2 L growth columns filled with a field soil (sandy loam). Plants were daily watered to a target soil water content of 0.25 g H2O g^-1 dry soil. Plant growth and transpiration analysis was in growth chambers at 25/18 °C (day/night), 60 % relative humidity and a light intensity of 600 µmol m^-2 s^-1 at 14 hours of photoperiod. Transpiration was measured by monitoring the weight of the plant-pot-system with an automated weighing system. Application of compound I formulated as EC 100 at 75 g ha^-1 was done with a track sprayer at 200 L ha^-1 when plants were at BBCH 23. Transpiration was monitored at optimal watering for seven days after application, afterwards watering was stopped. The experimental layout was a randomized complete block design with nine replications per treatment; one experimental unit was two plants per pot. The transpiration before treatment was used as covariant for statistical analysis (ANOVA, Agstat 1.6 / ACSAP 4.29).

Durum wheat = experiment: Crop enhancement effect on wheat under drought conditions in the field (Example 1c); conditions: for Protein content / Grain Yield / TGW / No. of grains per ear: 75.0 g a.i/ha at BBCH GS 39; for Grain Yield / TGW: adjusted to 10% standard moisture; for No. of grains per ear: average of 10 ears per plot
Method: Durum wheat (plot size 24m^2) was treated with a single application at BBCH GS 39 (flag leaf stage) with the compound of formula I at a rate of 75.0 g a.i/ha. The plants were split into non-irrigated (only rainfed) and irrigated with 50% of evapotranspiration compensation. Untreated check plants were also included in both water supply conditions. These water supply conditions were maintained during the reproductive stages of plant growth (BBCH 55-73). The trial was carried out with six replicates.
At the end of the trial, a 12m^2 plot was harvested from each of four replicates for each water supply condition. […]
In addition to the above factors, the Normalised Difference Vegetation Index (NDVI) was also assessed. This is an estimate of the photosynthetically absorbed radiation over the crop surfaces and allows an estimate of the Leaf Area Index in order to track plant growth and vigour. The NDVI was measured several times during the trial with two handheld crop devices with active light source optical sensors: GreenSeeker HCS-100 (7 measurements) and RapidSCAN CS-45 (5 measurements).

Soybean plants [2] = experiment: Crop enhancement effect on soybean under drought conditions, yield analysis (Example 2a); conditions: drought until day 65
Method: Soybean plants were grown in pots. The plants were treated at R1 (36 days after sewing) or R3 (44 days after sewing) with the compound of formula I at 0.75 l/ha. An untreated control plant was also included. After treatment, the plants were subjected to drought conditions until the end of the trial at day 65. Five replicates of the control and each treatment were harvested for analysis of yield and enzymatic activity. […]

glutathione reductase = experiment: Enzymatic analysis of soybean plants under drought conditions (Example 2a); conditions: 0.75 l/ha at R1 or R3
Method: Soybean plants were grown in pots. The plants were treated at R1 (36 days after sewing) or R3 (44 days after sewing) with the compound of formula I at 0.75 l/ha. An untreated control plant was also included. After treatment, the plants were subjected to drought conditions until the end of the trial at day 65. Five replicates of the control and each treatment were harvested for analysis of yield and enzymatic activity.

Soybean plants [3] = experiment: Crop enhancement effect on soybean under drought conditions, then optimal conditions (Example 2b); conditions: for Dry weight of pods: 21 days drought then 25 days optimal conditions
Method: Soybean plants were grown in pots. The plants were treated at R1 (33 days after sewing) or three days before R3 (40 days after sewing) with the compound of formula I at 0.75 l/ha. An untreated control plant was also included. After treatment, the plants were subjected to drought conditions for 21 days before being allowed to grow under optimal conditions for a further 25 days. Eight replicates of the control and each treatment were harvested for analysis of yield and chlorophyll content. […]

[4] = 0.75 l/ha @ R1, 3 days after application
[5] = 0.75 l/ha @ R1, 7 days after application
[6] = 0.75 l/ha @ R1, 10 days after application
[7] = 0.75 l/ha @ R1, 14 days after application
[8] = 0.75 l/ha @ R1, 21 days after application
[9] = 0.75 l/ha @ R1, 24 days after application
[10] = 0.75 l/ha @ R1, 28 days after application
[11] = 0.75 l/ha @ R1, 31 days after application
[12] = 0.75 l/ha @ R1, 36 days after application
[13] = 0.75 l/ha @ R1, 41 days after application
[14] = 0.75 l/ha @ R1, 43 days after application
[15] = 0.75 l/ha @ R1, -1 days after application
[16] = 0.75 l/ha @ R3 - 3 days, 0 days after application
[17] = 0.75 l/ha @ R3 - 3 days, 3 days after application
[18] = 0.75 l/ha @ R3 - 3 days, 7 days after application
[19] = 0.75 l/ha @ R3 - 3 days, 14 days after application
[20] = 0.75 l/ha @ R3 - 3 days, 17 days after application
[21] = 0.75 l/ha @ R3 - 3 days, 21 days after application
[22] = 0.75 l/ha @ R3 - 3 days, 24 days after application
[23] = 0.75 l/ha @ R3 - 3 days, 29 days after application
[24] = 0.75 l/ha @ R3 - 3 days, 34 days after application
[25] = 0.75 l/ha @ R3 - 3 days, 36 days after application
[26] = 0.75 l/ha @ R3 - 3 days, -3 days after application
[27] = 0.75 l/ha @ R3 - 3 days, -7 days after application

## Cn1cc(C(=O)Nc2cccc3c2C2CCC3C2=C(Cl)Cl)c(C(F)F)n1 (stereo not drawn) [Compound I, benzovindiflupyr]
[1]; EC 100 at 75 g ha^-1
  impact on biomass accumulation: no negative impact
[1]; EC 100 at 75 g ha^-1, BBCH 23, within one day, constant soil water content
  transpiration decrease compared to untreated control plants: about 8%
[1]; EC 100 at 75 g ha^-1, end of the experiment, control plants same value
  shoot dry weight: 6.3 ± 0.4 g plant^-1
[1]; EC 100 at 75 g ha^-1, irrigation withheld eight days after application
  transpiration rate during soil drying compared to untreated control plants: transiently higher transpiration rate
[1]; EC 100 at 75 g ha^-1, optimal watering
  duration of transpiration decrease: consistent for at least seven days
Durum wheat; 50% ET compensation
  Protein content: 15.45%
  Grain Yield: 60.60 dT/Ha
  TGW: 45.78 g
  No. of grains per ear: 42.08
Durum wheat; GreenSeeker HCS-100, BBCH 69(1), 50% ET compensation
  Normalised Difference Vegetation Index (NDVI): 0.820
Durum wheat; GreenSeeker HCS-100, BBCH 69(1), non-irrigated
  Normalised Difference Vegetation Index (NDVI): 0.788
Durum wheat; GreenSeeker HCS-100, BBCH 69(2), 50% ET compensation
  Normalised Difference Vegetation Index (NDVI): 0.787
Durum wheat; GreenSeeker HCS-100, BBCH 69(2), non-irrigated
  Normalised Difference Vegetation Index (NDVI): 0.747
Durum wheat; GreenSeeker HCS-100, BBCH 73, 50% ET compensation
  Normalised Difference Vegetation Index (NDVI): 0.750
Durum wheat; GreenSeeker HCS-100, BBCH 73, non-irrigated
  Normalised Difference Vegetation Index (NDVI): 0.672
Durum wheat; GreenSeeker HCS-100, BBCH 75-83, 50% ET compensation
  Normalised Difference Vegetation Index (NDVI): 0.705
Durum wheat; GreenSeeker HCS-100, BBCH 75-83, non-irrigated
  Normalised Difference Vegetation Index (NDVI): 0.557
Durum wheat; GreenSeeker HCS-100, BBCH 83-85, 50% ET compensation
  Normalised Difference Vegetation Index (NDVI): 0.673
Durum wheat; GreenSeeker HCS-100, BBCH 83-85, non-irrigated
  Normalised Difference Vegetation Index (NDVI): 0.468
Durum wheat; GreenSeeker HCS-100, BBCH 85, 50% ET compensation
  Normalised Difference Vegetation Index (NDVI): 0.572
Durum wheat; GreenSeeker HCS-100, BBCH 85, non-irrigated
  Normalised Difference Vegetation Index (NDVI): 0.375
Durum wheat; GreenSeeker HCS-100, BBCH 87, 50% ET compensation
  Normalised Difference Vegetation Index (NDVI): 0.464
Durum wheat; GreenSeeker HCS-100, BBCH 87, non-irrigated
  Normalised Difference Vegetation Index (NDVI): 0.185
Durum wheat; RapidSCAN CS-45, BBCH 69, 50% ET compensation
  Normalised Difference Vegetation Index (NDVI): 0.663
Durum wheat; RapidSCAN CS-45, BBCH 69, non-irrigated
  Normalised Difference Vegetation Index (NDVI): 0.592
Durum wheat; RapidSCAN CS-45, BBCH 73, 50% ET compensation
  Normalised Difference Vegetation Index (NDVI): 0.657
Durum wheat; RapidSCAN CS-45, BBCH 73, non-irrigated
  Normalised Difference Vegetation Index (NDVI): 0.625
Durum wheat; RapidSCAN CS-45, BBCH 83-85, 50% ET compensation
  Normalised Difference Vegetation Index (NDVI): 0.572
Durum wheat; RapidSCAN CS-45, BBCH 83-85, non-irrigated
  Normalised Difference Vegetation Index (NDVI): 0.393
Durum wheat; RapidSCAN CS-45, BBCH 85, 50% ET compensation
  Normalised Difference Vegetation Index (NDVI): 0.538
Durum wheat; RapidSCAN CS-45, BBCH 85, non-irrigated
  Normalised Difference Vegetation Index (NDVI): 0.320
Durum wheat; RapidSCAN CS-45, BBCH 87, 50% ET compensation
  Normalised Difference Vegetation Index (NDVI): 0.204
Durum wheat; RapidSCAN CS-45, BBCH 87, non-irrigated
  Normalised Difference Vegetation Index (NDVI): 0.083
Durum wheat; non-irrigated
  Protein content: 12.68%
  Grain Yield: 57.73 dT/Ha
  TGW: 51.16 g
  No. of grains per ear: 37.88
Soybean plants [2]; 0.75 l/ha @ R1
  Dry weight of pods: 114.8 % of control
Soybean plants [2]; 0.75 l/ha @ R3
  Dry weight of pods: 122.7 % of control
Glutathione reductase
  production of the enzyme glutathione reductase compared to the untreated control: increase in the production of the enzyme glutathione reductase
Soybean plants [3]; [4]
  Average plant colour (increase/decrease (%) compared to negative control treatment): 1.3%
  Digital biomass (increase/decrease (%) compared to negative control treatment): 2.6%
Soybean plants [3]; [5]
  Average plant colour (increase/decrease (%) compared to negative control treatment): 0.4%
  Digital biomass (increase/decrease (%) compared to negative control treatment): 0.4%
Soybean plants [3]; [6]
  Average plant colour (increase/decrease (%) compared to negative control treatment): -0.4%
  Digital biomass (increase/decrease (%) compared to negative control treatment): 1.9%
Soybean plants [3]; [7]
  Average plant colour (increase/decrease (%) compared to negative control treatment): -0.6%
  Digital biomass (increase/decrease (%) compared to negative control treatment): 2.4%
Soybean plants [3]; [8]
  Average plant colour (increase/decrease (%) compared to negative control treatment): -0.3%
  Digital biomass (increase/decrease (%) compared to negative control treatment): -1.5%
Soybean plants [3]; 0.75 l/ha @ R1
  Dry weight of pods: 106.3 % of control
Soybean plants [3]; [9]
  Average plant colour (increase/decrease (%) compared to negative control treatment): -0.3%
  Digital biomass (increase/decrease (%) compared to negative control treatment): -1.1%
Soybean plants [3]; [10]
  Average plant colour (increase/decrease (%) compared to negative control treatment): -1.6%
  Digital biomass (increase/decrease (%) compared to negative control treatment): 1.2%
Soybean plants [3]; [11]
  Average plant colour (increase/decrease (%) compared to negative control treatment): -3.0%
  Digital biomass (increase/decrease (%) compared to negative control treatment): -3.7%
Soybean plants [3]; [12]
  Average plant colour (increase/decrease (%) compared to negative control treatment): -0.5%
  Digital biomass (increase/decrease (%) compared to negative control treatment): -6.3%
Soybean plants [3]; [13]
  Average plant colour (increase/decrease (%) compared to negative control treatment): -1.4%
  Digital biomass (increase/decrease (%) compared to negative control treatment): -9.2%
Soybean plants [3]; [14]
  Average plant colour (increase/decrease (%) compared to negative control treatment): -2.0%
  Digital biomass (increase/decrease (%) compared to negative control treatment): -6.9%
Soybean plants [3]; [15]
  Average plant colour (increase/decrease (%) compared to negative control treatment): 0.3%
  Digital biomass (increase/decrease (%) compared to negative control treatment): 1.5%
Soybean plants [3]; [16]
  Average plant colour (increase/decrease (%) compared to negative control treatment): 0.4%
  Digital biomass (increase/decrease (%) compared to negative control treatment): 3.6%
Soybean plants [3]; [17]
  Average plant colour (increase/decrease (%) compared to negative control treatment): 1.3%
  Digital biomass (increase/decrease (%) compared to negative control treatment): 4.3%
Soybean plants [3]; [18]
  Average plant colour (increase/decrease (%) compared to negative control treatment): 0.4%
  Digital biomass (increase/decrease (%) compared to negative control treatment): 2.7%
Soybean plants [3]; [19]
  Average plant colour (increase/decrease (%) compared to negative control treatment): -0.2%
  Digital biomass (increase/decrease (%) compared to negative control treatment): 1.5%
Soybean plants [3]; [20]
  Average plant colour (increase/decrease (%) compared to negative control treatment): 1.4%
  Digital biomass (increase/decrease (%) compared to negative control treatment): 4.4%
Soybean plants [3]; [21]
  Average plant colour (increase/decrease (%) compared to negative control treatment): 0.2%
  Digital biomass (increase/decrease (%) compared to negative control treatment): 4.4%
Soybean plants [3]; 0.75 l/ha @ R3 - 3 days
  Dry weight of pods: 105.8 % of control
Soybean plants [3]; [22]
  Average plant colour (increase/decrease (%) compared to negative control treatment): 1.3%
  Digital biomass (increase/decrease (%) compared to negative control treatment): -2.4%
Soybean plants [3]; [23]
  Average plant colour (increase/decrease (%) compared to negative control treatment): -0.5%
  Digital biomass (increase/decrease (%) compared to negative control treatment): -0.9%
Soybean plants [3]; [24]
  Average plant colour (increase/decrease (%) compared to negative control treatment): -2.3%
  Digital biomass (increase/decrease (%) compared to negative control treatment): -3.3%
Soybean plants [3]; [25]
  Average plant colour (increase/decrease (%) compared to negative control treatment): -3.9%
  Digital biomass (increase/decrease (%) compared to negative control treatment): 1.6%
Soybean plants [3]; [26]
  Average plant colour (increase/decrease (%) compared to negative control treatment): 0.4%
  Digital biomass (increase/decrease (%) compared to negative control treatment): 2.2%
Soybean plants [3]; [27]
  Average plant colour (increase/decrease (%) compared to negative control treatment): 0.1%
  Digital biomass (increase/decrease (%) compared to negative control treatment): -1.2%
